Experimental data taken from US20080312162A1, “Methods and Compositions for Enzyme-Specific Activation of Carbohydrate-Conjugated Prodrugs” (THE OHIO STATE UNIVERSITY, priority 2004, published 2008).
Where “and” joins values, the source holds several entries; their conditions need not be identical. Identical values can stand only once. Entries after “also recorded” stand apart in the source; their conditions may differ.

Experiments:
Assay type in all cases: cell-based, human
SW620 = test: Anticancer activity (MTS assay) in SW620 cells
Protocol: (§1) The anticancer activities of six prodrug conjugates synthesized by the method were tested for anticytostatic activity by using the MTS assay to show suppression of cell growth. Four different human cell lines, including colorectal carcinoma cells (SW620, HT 29), breast cancer cells (MCF7), and leukemia cells (K562), were tested using the MTS assay. Each compound was tested at concentration 1-25,000 nM. GA also was tested for comparison. The inhibition of cell growth was calculated compared to control cells without drug treatment. For purposes of this description of in vitro cell culture testing, drug concentrations are given for the molar concentrations of the chemotherapeutic agents present in the media at the initiation of the test. Skilled artisans are aware of the various conversion factors necessary to convert media concentrations to tissue concentration targets and the dose necessary to achieve such a dose.
(§2) Cell Culture. Cell lines SW620, HT29, MCF7, and K562 were cultured in RPMI 1640 (Invitrogen, Carlsbad, Calif., USA) supplemented with 10% fetal bovine serum (FBS), 1% non-essential amino acid and Penicillin (100 u/mL) Streptomycin (100 ug/mL) in a humidified atmosphere of 5% CO2 and 95% air at 37° C. The culture mediums were changed every 2-3 days.
(§3) Anticancer activity of compound (24-29) (MTS assay). Cells (2,000-10,000) were seeded in 96 well plates in RPMI-1640 and incubated for 24 hours. The exponentially growing cancer cells were incubated with various concentrations of compounds for 72 hours at 37° C. (5% CO2, 95% humidity).

HT29 = test: Anticancer activity (MTS assay) in HT29 cells
Protocol: as §1, §2, §3

MCF7 = test: Anticancer activity (MTS assay) in MCF7 cells; details: 72 hours
Protocol: as §1, §2, §3

K562 [1] = test: Anticancer activity (MTS assay) in K562 cells; details: 72 hours
Protocol: as §1, §2, §3

K562 [2] = test: Beta-glucosidase inhibition assay (DMDP) in K562 cell line; details: for Cell growth relative to untreated cells: higher concentration (0.4 μM)
Source text: Similar results showing preferential activation of glucose conjugates relative to galactose or lactose conjugates were obtained in other cancer cell lines. The glucose-conjugated compound is apparently cleaved by native glucosidase inside of the cancer cells resulting in release of a biologically active anti-cytostatic compound. The cleavage of glucose conjugates by an enzymatic pathway to release an active drug is shown by a beta-glucosidase inhibition assay. FIG. 5 is a graph showing the results of a beta-glucosidase inhibition assay studied in K562 cell line. Two different concentrations of prodrug were tested in this experiment. For compound 24, 17-demethoxy-17-[(2-β-glucopyranosylethyl)amino]geldanamycin], the higher concentration is 0.4 μM and the lower concentration is 0.2 μM. […] Percentages of cell growth were calculated compared to control cells in the absence of beta-glucosidase inhibitor and prodrug solution. Each bar represents the average of three experiments. […] While the higher concentration of compound 24 limits cells growth to about 20% of untreated cells, when the beta-glucosidase inhibitor DMDP is added, the high concentration of compound 24 only reduces growth to about 60% that of untreated cells.
Beta-glucosidase Inhibition assay. To verify if the cleavage of sugar moieties from compound 24 is crucial for the anticancer activity, we performed the β-glucosidase inhibition study in K562 cell line. The K562 cells were treated with β-glucosidase inhibitor 2, 5-dihydroxymethyl-3,4-dihydroxypyrrolidine (DMDP) solution (100 μM) for 10 minutes before adding carbohydrate-geldanamycin conjugates. The concentrations of glucose-GA were 0.4 μM and 0.2 μM, respectively. […] From the structures of compounds 24 and 25, the only difference between these two compounds is the sugar moiety, which is glucose in compound 24 and galactose in compound 25.
Beta-Glucosidase inhibition assay for compound 2425. […] The exponentially growing cancer cells were incubated in three different conditions (cells with different concentration of test compounds and DMDP, cells with different concentration of test compounds only, and cell with DMDP only) for 72 hours at 37° C. (5% CO2, 100% humidity). The control cells were exposed to fresh medium only. Then, the anticancer activities of compound 24, 25 were measured with MTS assay as described above. The percentages of cell growth for tested compounds vs. control cells were calculated by the absorbance at 490 nm.

various cancer cells = test: Anticancer activity (MTS assay), pooled statements on various cancer cells; details: no added enzyme
Protocol: as §1, §3

SW620, HT29 and K562 = test: Beta-galactosidase cleavage assay; details: 2 units beta-galactosidase
Protocol: Thus, galactose-GA and lactose-GA conjugates were exposed to beta-galactosidase and observed for enhancement of anticancer activities. […] For compounds 25-29, 1 μM concentration of prodrug compounds were used. GA (0.01 μM), compound 24 (0.1 μM) and beta-galactosidase (2 units) was used in the cell culture. Each bar in the graphs shown is the average of three experiments. Relative percentage of cell growth was calculated compared to control cells in the absence of beta-galactosidase and drug solution. Cell lines SW620, HT29 and K562 were exposed to 2 units of beta-galactosidase and then treated individually with 1 μM of compounds 25-29. At this concentration, galactose-geldanamycin conjugates alone were relatively devoid of anticancer activity.
Beta-galactosidase cleavage assay. Cells (2,000-10,000) were seeded in 96 well plates in RPMI-1640 and incubated for 24 hours. The exponentially growing cancer cells were incubated with 2 units of beta-galactosidase for 10 minutes. The same concentration solutions of various compounds (25-29) were added to each well. The control cells were exposed to fresh medium only or to beta-galactosidase alone. After incubated for 72 hours at 37° C. (5% CO2, 100% humidity), the cell growth was measured with MTS assay as described above. The percentages of cell growth of tested compounds vs. control were calculated by measuring the absorbance at 490 nm.

SMILES	IC50 (SW620; 72 hours)	IC50 (HT29; 72 hours) [nM]	IC50 (MCF7) [nM]	IC50 (K562 [1]) [nM]	other results
COC1C=CC=C(C)C(=O)NC2=CC(=O)C(NCCCOC3OC(CO)C(O)C(O)C3O)=C(CC(C)CC(OC)C(O)C(C)C=C(C)C1OC(N)=O)C2=O (centres unmarked) [compound 26]	> 14000 nM	> 6000	> 12000	> 14000	–
COC1C=CC=C(C)C(=O)NC2=CC(=O)C(NCCOCCOC3OC(CO)C(O)C(O)C3O)=C(CC(C)CC(OC)C(O)C(C)C=C(C)C1OC(N)=O)C2=O (stereo not drawn) [compound 28, 17-demethoxy-17-{[2-(2-β-galactopyranosylethyl)ethyl]amino}geldanamycin]	> 11000 nM	> 13000	> 22000	> 15000	–
COC1C=CC=C(C)C(=O)NC2=CC(=O)C(NCCOC3OC(CO)C(O)C(O)C3O)=C(CC(C)CC(OC)C(O)C(C)C=C(C)C1OC(N)=O)C2=O (stereo not drawn) [compound 25, 17-demethoxy-17-[(2-β-galactopyranosylethyl)amino]geldanamycin]	–	> 14000	> 25000	> 23000	Effect of beta-glucosidase inhibitor DMDP on activity (K562 [2]; DMDP 100 μM): did not affect; also recorded: relatively unaffected
COC1=C2C[C@@H](C)C[C@H](OC)[C@H](O)[C@@H](C)/C=C(\C)[C@H](OC(N)=O)[C@@H](OC)/C=C\C=C(/C)C(=O)NC(=CC1=O)C2=O [GA, Geldanamycin, reference compound]	–	–	–	–	IC50 (SW620; Homo sapiens, SW-620, 72 hours): 6.2 nM; IC50 (HT29; Homo sapiens, HT-29, 72 hours): 24.5 nM; IC50 (MCF7; Homo sapiens): 6.5 nM; IC50 (K562 [1]; Homo sapiens): 22.1 nM
COC1C=CC=C(C)C(=O)NC2=CC(=O)C(NCCCCCOC3OC(CO)C(O)C(O)C3O)=C(CC(C)CC(OC)C(O)C(C)C=C(C)C1OC(N)=O)C2=O (centres unmarked) [compound 27]	> 13000 nM	> 13000	> 17000	> 19000	–
COC1C=CC=C(C)C(=O)NC2=CC(=O)C(NCCOC3OC(CO)C(OC4OC(CO)C(O)C(O)C4O)C(O)C3O)=C(CC(C)CC(OC)C(O)C(C)C=C(C)C1OC(N)=O)C2=O (stereo not drawn) [compound 29, 17-demethoxy-17-[(2-β-lactopyranosylethyl)amino]geldanamycin]	> 20000 nM	> 25000	> 22000	> 25000	–
COC1C=CC=C(C)C(=O)NC2=CC(=O)C(NCCOC3OC(CO)C(O)C(O)C3O)=C(CC(C)CC(OC)C(O)C(C)C=C(C)C1OC(N)=O)C2=O (stereo not drawn) [compound 24, 17-demethoxy-17-[(2-β-glucopyranosylethyl)amino]geldanamycin]	70 nM and 70.2 nM	105	754	381	Anticytostatic activity against tumor cells (various cancer cells): showed anticytostatic activity; Anticancer activity IC50 in various cancer cells (various cancer cells; various cancer cells): within the nanomolar range; IC50 (various cancer cells; various cancer cells): 70.2 to 381 nM; Decrease of activity after treatment with DMDP (K562 [2]; DMDP 100 μM): 3 fold; Effect of beta-glucosidase inhibitor DMDP on activity (K562 [2]; DMDP 100 μM, listed as glucose-GA): completely abolished; Cell growth relative to untreated cells (K562 [2]; with beta-glucosidase inhibitor DMDP (100 μM)): about 60%; Cell growth relative to untreated cells (K562 [2]; without DMDP): about 20%; Effect of beta-galactosidase treatment on activity (SW620, HT29 and K562): did not affect biological activity; also recorded: relatively unaffected; Effect of beta-galactosidase treatment on activity (SW620, HT29 and K562; listed as glucose-GA): not affected
OCC1NC(CO)C(O)C1O (centres unmarked) [DMDP, 2,5-dihydroxymethyl-3,4-dihydroxypyrrolidine, reference compound]	–	–	–	–	Effect on cell growth (K562 [2]; DMDP alone): did not have any effect on cell growth
